System: nine human cancer cell lines
Test: Cancer cell viability, MTT assay, summary over the panel
Type: cell-based
Details: range over nine cell lines, 48 h
Method: The following human cancer cell lines were obtained from the American Type Culture Collection (Manassas, VA, USA): lung (A549), prostate (DU145 and PC3), colon (HCT116 and HT-29), cervix (HeLa), hepatocellular liver (HepG2), breast (MCF-7), and pancreatic cancer (PANC-1). These cells were cultured in RPMI 1640 medium supplemented with 10% fetal bovine serum, penicillin (100 units/mL), streptomycin (100 µg/mL), and 1.6 mg/mL NaHCO3 at 37°C in a humid atmosphere of 5% CO2/95% air. For the cell viability assay, cells were seeded at 1×10^3 cells/well in a 96-well microplate with various concentrations of the test compounds, and incubated for 48 h. MTT (3-(4,5-dimethylthiazol-2-yl)-2,5-diphenyl tetrazolium bromide) solution was added to a final concentration 0.6 mg/mL in Milli-Q purified water for 2 h, after which time the medium was discarded and the cells lysed in DMSO. A540 was then measured in a microplate reader (Model 680, Bio-Rad Laboratories, Hercules, CA, USA).

Compound: CCCCCCCC/C=C\CCCCCCCC(=O)Oc1cccc2c1C(=O)C=C(C)C2=O [2f, 5-O-oleoyl-2-methyl-1,4-naphthoquinone]
- LD50 values: 2.9 to 21.0 µM
